Experimental data reported in US12103945B2, “Crystalline form of vascular leakage blocker compound” (Curacle Co., Ltd., priority 2020, dated 2024).
Values after ≈ are worked out from the molar mass of the structure shown.

How the values were obtained:
Assay type in all cases: physicochemical
[1] = Crystalline form change on storage at room temperature (XRPD)
Procedure: The X-ray powder diffraction (XRPD) pattern was obtaine d on a Shimadzu XRD-6000 instrument.
• Tube: Cu: K-α (λ=1.54056 Å) • Generator: Voltage: 40 kV; Current: 30 mA • Scan Scope: 3˜50 deg. Scanning rate: 5 deg./min
[…] Particularly, XRPD was performed according to the method described in <Experimental Methods> 1. X-ray Powder Diffractometer (XRPD).

[2] = Solubility assay by visual observation and manual dilution; details: thermodynamic from solid, room temperature
Procedure: Solubility assay was performed by visual observation and manual dilution at room temperature. […] The total amount of the solvent was recorded to calculate the solubility for each solvent.

[3] = Accelerated stability test (HPLC purity); details: for Purity (%): 40 ± 2° C. & 75 ± 5% RH
Procedure: • Column: Agilent Zorbax Rx C8, 4.6 mm×250 mm, 5.0 μm • Moving phase: 85% acetonitrile • Flow rate: 1.0 mL/rain • Wavelength: 205 nm • Injection volume: 10 λL • Column temperature: 30° C. • Diluent: 100% acetonitrile
In order to confirm the stability of the novel crystalline form according to the present invention, the stability of the crystalline form I prepared in Example 1 was evaluated using a liquid chromatography method under the analysis conditions of <Experimental Methods>6. High performance liquid chromatography (HFLC). The results of the accelerated stability test from 1 month to 6 months in the conditions of 40±2° C. & 75±5 RH are shown in Table 15 below.

[4] = Dynamic vapor sorption (DVS); details: for Mass change (%) Desorption / Mass change (%) Sorption / Mass change (%) Hysteresis: 25° C.
Procedure: Around 10 mg of samples were used to test its moisture sorption/desorption profiles.
• Temperature: 25° C. • Equilibrium: dm/dt: 0.01%/min • Relative Humidity (RH) measurement stepscope: 0%˜95%˜0% RH • Relative Humidity (RH) measurement step: 5% RH • Samples: 10-20 mg • Hygroscopicity Classification • Hygroscopicity: Water Sorption Criterion • Deliquescent: Sufficient water is absorbed to form a liquid. • Very hygroscopic: W %≥15% • Hygroscopic: W %≥2% • Slightly hygroscopic: W %≥0.2% • Non-hygroscopic: W %<0.2% • 25±1° C., 80±2% RH

[5] = Thermal gravimetric analysis (TGA); details: heating from room temperature to 120° C.
Procedure: Samples of compounds (4˜6 mg) were weighed into the pan, and heated under nitrogen purge.
• Ramp rate: 20° C./min over the range 30° C.˜300° C. • Nitrogen purge: 50 mL/min • Samples: About 5 mg

[6] = stored at room temperature for 2 months
[7] = stored at room temperature for 3 months

SMILES: COC(=O)CCC/C=C(\C)[C@H]1CC[C@H]2[C@@H]3CC=C4C[C@@H](O[C@@H]5C=C[C@H](OC(C)=O)[C@@H](COC(C)=O)O5)CC[C@]4(C)[C@H]3CC[C@]12C [crystalline form IV, (E)-methyl 6-((3S,8S,9S,10R,13S,14S,17R)-3-(((2S,5S,6R)-5-acetoxy-6-(acetoxymethyl)-5,6-dihydro-2H-pyran-2-yl)oxy)-10,13-dimethyl-2,3,4,7,8,9,10,11,12,13,14,15,16,17-tetradecahydro-1H-cyclopenta[a]phenanthrene-17-yl)hept-5-enoate]
- Change of crystalline form (XRPD pattern) [1, 6]: a novel crystalline form having the XRPD pattern different from that of the crystalline form IV was confirmed
- Change of crystalline form (XRPD pattern) [1, 7]: a novel crystalline form having the XRPD pattern different from that of the crystalline form IV was confirmed

SMILES: COC(=O)CCC/C=C(\C)[C@H]1CC[C@H]2[C@@H]3CC=C4C[C@@H](O[C@@H]5C=C[C@H](OC(C)=O)[C@@H](COC(C)=O)O5)CC[C@]4(C)[C@H]3CC[C@]12C [crystalline form V, (E)-methyl 6-((3S,8S,9S,10R,13S,14S,17R)-3-(((2S,5S,6R)-5-acetoxy-6-(acetoxymethyl)-5,6-dihydro-2H-pyran-2-yl)oxy)-10,13-dimethyl-2,3,4,7,8,9,10,11,12,13,14,15,16,17-tetradecahydro-1H-cyclopenta[a]phenanthrene-17-yl)hept-5-enoate]
- Change of crystalline form (XRPD pattern) [1, 6]: a novel crystalline form having the XRPD pattern different from that of the crystalline form V was confirmed
- Change of crystalline form (XRPD pattern) [1, 7]: a novel crystalline form having the XRPD pattern different from that of the crystalline form V was confirmed

SMILES: COC(=O)CCC/C=C(\C)[C@H]1CC[C@H]2[C@@H]3CC=C4C[C@@H](OC5C=C[C@H](OC(C)=O)[C@@H](COC(C)=O)O5)CC[C@]4(C)[C@H]3CC[C@]12C (stereo partly drawn) [compound 1, (E)-methyl 6-((3S,8S,9S,10R,13S,14S,17R)-3-(((5S,6R)-5-acetoxy-6-(acetoxymethyl)-5,6-dihydro-2H-pyran-2-yl)oxy)-10,13-dimethyl-2,3,4,7,8,9,10,11,12,13,14,15,16,17-tetradecahydro-1H-cyclopenta[a]phenanthrene-17-yl)hept-5-enoate]
- solubility ([2]; organic solvent or mixture, solvent 1,4-dioxane): > 100 mg/mL
- solubility ([2]; organic solvent or mixture, solvent 1-butanol): 26 to 52 mg/mL (≈ 41.5 to 83 mM)
- solubility ([2]; organic solvent or mixture, solvent 2-methyl-tetrahydrofuran): > 93.2 mg/mL
- solubility ([2]; organic solvent or mixture, solvent Acetone): > 100 mg/mL
- solubility ([2]; organic solvent or mixture, solvent Acetonitrile (ACN)): > 82.6 mg/mL
- solubility ([2]; organic solvent or mixture, solvent Anisole): > 100 mg/mL
- solubility ([2]; organic solvent or mixture, solvent Butyl acetate): > 88.6 mg/mL
- solubility ([2]; organic solvent or mixture, solvent Chloroform): > 100 mg/mL
- solubility ([2]; organic solvent or mixture, solvent Cyclohexane): 26 to 40 mg/mL (≈ 41.5 to 63.8 mM)
- solubility ([2]; organic solvent or mixture, solvent Dichloromethane (DCM)): > 100 mg/mL
- solubility ([2]; organic solvent or mixture, solvent Dimethyl sulfoxide (DMSO)): 30 to 45 mg/mL (≈ 47.9 to 71.8 mM)
- solubility ([2]; organic solvent or mixture, solvent Ethanol (EtOH)): 5.1 to 6.4 mg/mL (≈ 8.14 to 10.2 mM)
- solubility ([2]; organic solvent or mixture, solvent Ethyl acetate (EtOAc)): > 100 mg/mL
- solubility ([2]; organic solvent or mixture, solvent Isopropanol (IPA)): 5.1 to 6.8 mg/mL (≈ 8.14 to 10.8 mM)
- solubility ([2]; organic solvent or mixture, solvent Isopropyl acetate (iPrOAc)): > 100 mg/mL
- solubility ([2]; organic solvent or mixture, solvent Isopropyl ether): 65.2 to 130 mg/mL (≈ 104 to 208 mM)
- solubility ([2]; organic solvent or mixture, solvent Methanol (MeOH)): 6.9 to 8.2 mg/mL (≈ 11 to 13.1 mM)
- solubility ([2]; organic solvent or mixture, solvent Methyl ethyl ketone (MEK)): > 100 mg/mL
- solubility ([2]; organic solvent or mixture, solvent Methyl tert-butyl ether (MTBE)): > 85.4 mg/mL
- solubility ([2]; organic solvent or mixture, solvent N,N-dimethylformamide (DMF)): > 100 mg/mL
- solubility ([2]; organic solvent or mixture, solvent Petroleum ether): 11.5 to 15.3 mg/mL (≈ 18.3 to 24.4 mM)
- solubility ([2]; organic solvent or mixture, solvent Tetrahydrofuran (THF)): > 76 mg/mL
- solubility ([2]; organic solvent or mixture, solvent Toluene): > 83 mg/mL
- solubility ([2]; organic solvent or mixture, solvent n-heptane): 6.3 to 8.8 mg/mL (≈ 10.1 to 14 mM)
- solubility ([2]; organic solvent or mixture, solvent n-propanol): 26.1 to 52.1 mg/mL (≈ 41.6 to 83.1 mM)
- solubility ([2]; solvent Water (H2O)): < 1 mg/mL

SMILES: COC(=O)CCC/C=C(\C)[C@H]1CC[C@H]2[C@@H]3CC=C4C[C@@H](O[C@@H]5C=C[C@H](OC(C)=O)[C@@H](COC(C)=O)O5)CC[C@]4(C)[C@H]3CC[C@]12C [crystalline form I, (E)-methyl 6-((3S,8S,9S,10R,13S,14S,17R)-3-(((2S,5S,6R)-5-acetoxy-6-(acetoxymethyl)-5,6-dihydro-2H-pyran-2-yl)oxy)-10,13-dimethyl-2,3,4,7,8,9,10,11,12,13,14,15,16,17-tetradecahydro-1H-cyclopenta[a]phenanthrene-17-yl)hept-5-enoate]
- Purity (%) ([3]; storage time 1 month): 99.8%
- Purity (%) ([3]; storage time 3 months): 99.8%
- Purity (%) ([3]; storage time 6 months): 99.8%
- Purity (%) ([3]; storage time Initial): 99.8%
- Accelerated stability (result in words) ([3]; 40±2° C. & 75±5 RH, 1 month to 6 months): stably maintained for up to 6 months without affecting the purity
- Mass change (%) Desorption ([4]; Target RH 0.0%): −0.1124%
- Mass change (%) Sorption ([4]; Target RH 0.0%): 0.0000%
- Mass change (%) Desorption ([4]; Target RH 5.0%): −0.1004%
- Mass change (%) Hysteresis ([4]; Target RH 5.0%): −0.1074%
- Mass change (%) Sorption ([4]; Target RH 5.0%): 0.0070%
- Mass change (%) Desorption ([4]; Target RH 10.0%): −0.0904%
- Mass change (%) Hysteresis ([4]; Target RH 10.0%): −0.1034%
- Mass change (%) Sorption ([4]; Target RH 10.0%): 0.0131%
- Mass change (%) Desorption ([4]; Target RH 15.0%): −0.0773%
- Mass change (%) Hysteresis ([4]; Target RH 15.0%): −0.0964%
- Mass change (%) Sorption ([4]; Target RH 15.0%): 0.0191%
- Mass change (%) Desorption ([4]; Target RH 20.0%): −0.0673%
- Mass change (%) Hysteresis ([4]; Target RH 20.0%): −0.0906%
- Mass change (%) Sorption ([4]; Target RH 20.0%): 0.0231%
- Mass change (%) Desorption ([4]; Target RH 25.0%): −0.0492%
- Mass change (%) Hysteresis ([4]; Target RH 25.0%): −0.0803%
- Mass change (%) Sorption ([4]; Target RH 25.0%): 0.0311%
- Mass change (%) Desorption ([4]; Target RH 30.0%): −0.0402%
- Mass change (%) Hysteresis ([4]; Target RH 30.0%): −0.0723%
- Mass change (%) Sorption ([4]; Target RH 30.0%): 0.0321%
- Mass change (%) Desorption ([4]; Target RH 35.0%): −0.0261%
- Mass change (%) Hysteresis ([4]; Target RH 35.0%): −0.0592%
- Mass change (%) Sorption ([4]; Target RH 35.0%): 0.0331%
- Mass change (%) Desorption ([4]; Target RH 40.0%): −0.0131%
- Mass change (%) Hysteresis ([4]; Target RH 40.0%): −0.0582%
- Mass change (%) Sorption ([4]; Target RH 40.0%): 0.0452%
- Mass change (%) Desorption ([4]; Target RH 45.0%): 0.0000%
- Mass change (%) Hysteresis ([4]; Target RH 45.0%): −0.0512%
- Mass change (%) Sorption ([4]; Target RH 45.0%): 0.0512%
- Mass change (%) Desorption ([4]; Target RH 50.0%): 0.0141%
- Mass change (%) Hysteresis ([4]; Target RH 50.0%): −0.0462%
- Mass change (%) Sorption ([4]; Target RH 50.0%): 0.0602%
- Mass change (%) Desorption ([4]; Target RH 55.0%): 0.0261%
- Mass change (%) Hysteresis ([4]; Target RH 55.0%): −0.0381%
- Mass change (%) Sorption ([4]; Target RH 55.0%): 0.0642%
- Mass change (%) Desorption ([4]; Target RH 60.0%): 0.0392%
- Mass change (%) Hysteresis ([4]; Target RH 60.0%): −0.0351%
- Mass change (%) Sorption ([4]; Target RH 60.0%): 0.0743%
- Mass change (%) Desorption ([4]; Target RH 65.0%): 0.0522%
- Mass change (%) Hysteresis ([4]; Target RH 65.0%): −0.0291%
- Mass change (%) Sorption ([4]; Target RH 65.0%): 0.0813%
- Mass change (%) Desorption ([4]; Target RH 70.0%): 0.0663%
- Mass change (%) Hysteresis ([4]; Target RH 70.0%): −0.0231%
- Mass change (%) Sorption ([4]; Target RH 70.0%): 0.0893%
- Mass change (%) Desorption ([4]; Target RH 75.0%): 0.0823%
- Mass change (%) Hysteresis ([4]; Target RH 75.0%): −0.0191%
- Mass change (%) Sorption ([4]; Target RH 75.0%): 0.1014%
- Mass change (%) Desorption ([4]; Target RH 80.0%): 0.0964%
- Mass change (%) Hysteresis ([4]; Target RH 80.0%): −0.0131%
- Mass change (%) Sorption ([4]; Target RH 80.0%): 0.1094%
- Mass change (%) Desorption ([4]; Target RH 85.0%): 0.1114%
- Mass change (%) Hysteresis ([4]; Target RH 85.0%): −0.0080%
- Mass change (%) Sorption ([4]; Target RH 85.0%): 0.1195%
- Mass change (%) Desorption ([4]; Target RH 90.0%): 0.1325%
- Mass change (%) Hysteresis ([4]; Target RH 90.0%): −0.0010%
- Mass change (%) Sorption ([4]; Target RH 90.0%): 0.1335%
- Mass change (%) Desorption ([4]; Target RH 95.0%): 0.1436%
- Mass change (%) Sorption ([4]; Target RH 95.0%): 0.1436%
- Hygroscopicity classification ([4]; 25±1° C., 80±2% RH): non-hygroscopic
- water sorption ([4]; at 80% RH): 0.11%
- mass loss (TGA) [5]: 0.078%
